≈ marks a conversion by molar mass, not a printed value.
What was measured:
(brain) T98G = test: MTT assay T98G; assay type: cell-based; conditions: Homo sapiens
Experimental: (§1) Cells. Human cancer cell lines were obtained from American Type Culture Collection: HTB-9 (bladder), HeLa-S3 (cervix), DU145 (prostate), H460 (lung), MCF-7 (breast), K562 (leukocytes), HCT116 (colon), HepG2 (liver), U2OS (bone), T98G (brain), SK-MEL-5 (Skin) and OVCAR-3 (ovary). The cells were grown in following culture media: HeLa-53, DU145, MCF-7, Hep-G2 and T98G are in MEN (Earle's salts); HTB-9, H460, K562 and OVCAR-3 in RPMI-1640; HCT-116 and U2OS in McCoy-5A. They are supplemented with 10% fetal calf serum, glutamine and antibiotics, and incubated in an incubator with 5% CO2 humidified at 37° C.
(§2) MTT Assay. The procedure for MTT assay followed the method described by Carmichael et al. (1987) with modifications. […] The formazan (product of the reduction of tetrazolium by viable cells) formed and was dissolved with DMSO and the O.D. at 490 nm, and was measured by an ELISA reader. The MTT level of the cells before drug-treatment was also measured (T0). The % cell-growth (% G) is calculated as: % G=(TD−T0/TC−T0)×100(1), where TC or TD represents O.D. readings of control or drug-treated cells. When T0>TD, then the cytotoxicity (LC) expressed as % of the control is calculated as: % LC=(TD−T0/T0)×100(2).

[1] = tested on: Fibronectin secretion from ES2 cells; test: Fibronectin secretion (Western blot), ES2 cells; assay type: cell-based, human; conditions: Homo sapiens, ES-2, ES2 cells, 10 ug/ml
(Prostate) DU145 = test: MTT assay DU145; assay type: cell-based, human; conditions: Homo sapiens, DU-145, read-out: IC50
Experimental: as §1, §2

(lung)H460 cells = test: MTT assay H460; assay type: cell-based; conditions: Homo sapiens, NCI-H460
Experimental: as §1, §2

[2] = tested on: (bladder)TB9 cells / HTB-9; test: MTT assay bladder cells; assay type: cell-based, human; conditions: Homo sapiens; (bladder)TB9 cells; read-out: IC50
Experimental: as §1
MTT Assay. The procedure for MTT assay followed the method described by Carmichael et al. (1987) with modifications. The cells were seeded into a 96-well plate at concentration of 10,000/well for HTB-9, HeLa, H460, HCT116, T98G and OVCAR-3), 15,000/well for DU145, MCF-7, HepG2 and U2OS), and 40,000/well for K562 for 24 hours before drug-treatment. The cells were then exposed to the drugs for 48 hours (72 hours for HepG2 and U2OS, and 96 hours for MCF-7). After the drug-treatment, MTT (0.5 mg/mL) was added to cultures and incubated for an hour. The formazan (product of the reduction of tetrazolium by viable cells) formed and was dissolved with DMSO and the O.D. at 490 nm, and was measured by an ELISA reader. The MTT level of the cells before drug-treatment was also measured (T0). The % cell-growth (% G) is calculated as: % G=(TD−T0/TC−T0)×100(1), where TC or TD represents O.D. readings of control or drug-treated cells. When T0>TD, then the cytotoxicity (LC) expressed as % of the control is calculated as: % LC=(TD−T0/T0)×100(2).

ES2(ovarian) cells = test: MTT assay ES2; assay type: cell-based, human; conditions: Homo sapiens, ES-2, ES2 cells; read-out: IC50
[3] = tested on: Fibronectin secretion from brain glioblastoma T98G cells; test: Fibronectin secretion (Western blot), T98G cells; assay type: cell-based, human; conditions: Homo sapiens, T98G, 10 ug/ml
[4] = tested on: Fibronectin secretion from liver HepG2 cells; test: Fibronectin secretion (Western blot), HepG2 cells; assay type: cell-based, human; conditions: Homo sapiens, HepG2, HepG2 cells, 10 ug/ml
[5] = tested on: Fibronectin secretion from skin SK-Mel-5 cells; test: Fibronectin secretion (Western blot), SK-MEL-5 cells; assay type: cell-based, human; conditions: Homo sapiens, 10 ug/ml
[6] = tested on: Fibronectin secretion from lung carcinoma cells (H460); test: Fibronectin secretion (Western blot), H460 cells; assay type: cell-based, human; conditions: Homo sapiens, NCI-H460, H460 cells, 10 ug/ml
[7] = tested on: Fibronectin secretion from bladder carcinoma cells (HTB-9); test: Fibronectin secretion (Western blot), HTB-9 cells; assay type: cell-based, human; conditions: Homo sapiens, 10 ug/ml
(Liver) HepG2 = test: MTT assay HepG2; assay type: cell-based, human; conditions: Homo sapiens, read-out: IC50
Experimental: as §1, §2

(Breast)MCF7 = test: MTT assay MCF7; assay type: cell-based, human; conditions: Homo sapiens, read-out: IC50
Experimental: as §1, §2

(Skin) SK-MELS = test: MTT assay SK-MEL-5; assay type: cell-based, human; conditions: Homo sapiens, SK-MEL-5, read-out: IC50
Experimental: as §1, §2

[8] = tested on: Leishmania Major (promastigotes); test: Cell growth of Leishmania parasites by MTT assay; assay type: cell-based; conditions: read-out: IC50, cytotoxic to Leishmania Major (promastigotes)
Experimental: Method: Leishmania parasites (Leishmania major: MRHO/SU/59/P/LV39) were grown in culture medium in a T75 flask at room temperature. Promastigotes of Leishmania major (approximately 40 million per ml) were used in the experiment. 1.2 ml cell culture was transferred to a well of the 24-wells plate. Saponin Y10 (0.2 ml in medium) with different concentrations (final 6.25-200 ug/ml) was added to culture and cells were grown for 1-5 days at room temperature. At the end of drug-treatment, 150 ul of MTT (5 mg/ml in PBS) was added to each well and incubated for 4 hours. Formazan formed in cells was dissolved with DMSO and the OD at 490 nm was determined by an ELISA reader.

IC50 ((Prostate) DU145) [µg/mL]	IC50 ((lung)H460 cells) [µg/mL]	IC50 ((Liver) HepG2) [µg/mL]	IC50 ((Breast)MCF7) [µg/mL]	IC50 ((Skin) SK-MELS) [µg/mL]	SMILES	IC50 ((brain) T98G) [µg/mL]	inhibition at 10 µg/mL [1] [%]	IC50 [2] [µg/mL]	IC50 (ES2(ovarian) cells) [µg/mL]	inhibition at 10 µg/mL [3] [%]	inhibition at 10 µg/mL [4] [%]	inhibition at 10 µg/mL [5] [%]	inhibition at 10 µg/mL [6] [%]	inhibition at 10 µg/mL [7] [%]	IC50 [8] [µg/mL]
6.4 (≈ 9.54 µM)	6.5 (≈ 9.69 µM)	4 (≈ 5.96 µM)	13 (≈ 19.4 µM)	22 (≈ 32.8 µM)	C/C=C(/C)C(=O)O[C@H]1[C@H](OC(=O)/C(C)=C\C)[C@@]23C(CC1(C)C)[C@]1(CCC4[C@@]5(C)CC[C@H](O)C(C)(C)C5CC[C@@]4(C)[C@]1(C)C[C@H]2O)O[C@@H]3O (stereo partly drawn) [ACH-Mb5]	6 (≈ 8.94 µM)	30	5.7 (≈ 8.5 µM)	8 (≈ 11.9 µM)	35	25	20	22	30	–
–	–	–	–	–	C/C=C(/C)C(=O)O[C@H]1[C@H](OC(=O)/C(C)=C\C)[C@@]2(CO)C(CC1(C)C)C1=CCC3[C@@]4(C)CC[C@H](O[C@@H]5OC(C(=O)O)[C@@H](O)[C@@H](O[C@@H]6O[C@@H](CO)[C@@H](O)C6O)C5O[C@@H]5OC(CO)[C@H](O)[C@@H](O)C5O)C(C)(C)C4CC[C@@]3(C)[C@]1(C)C[C@H]2O (stereo partly drawn) [Xanifolia Y10, 3-O-[β-galactopyranosyl (1→2)]-α-arabinofuranosyl (1→3)-β-glucuronopyranosyl-21, 22-O-diangeloyl-3β, 16α, 21β, 22α, 28-pentahydroxyolean-12-ene]	–	–	–	–	–	–	–	–	–	~15 (≈ 13.3 µM)
